The text below walks through data of PubChem BioAssay (NCI).

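The compound was tested at five concentrations on cells cultured in 96-well plates, with a 48-hour exposure period. TGI marks complete inhibition of growth.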

Test systems include ACHN renal; K-562 leukemia; NCI-H522 lung; OVCAR-4 ovarian; SK-MEL-28 melanoma; SR leukemia; TK-10 renal; U251 CNS; OVCAR-5 ovarian; MCF7 breast.
What all share (assay): NCI-60 cell line screen, 48 h

Turning to `Cc1cc2oc(=O)[nH]c(=S)c2c(C)c1C`, the TGI in the assay on ACHN renal, in the assay with K-562 leukemia, in the assay with NCI-H522 lung, in the assay on OVCAR-4 ovarian, in the assay with SK-MEL-28 melanoma and in the assay on SR leukemia was more than 100 µM each time. Moreover, the TGI in the assay on TK-10 renal and in the assay with U251 CNS was more than 100 µM throughout.
Regarding `CCOC(=O)CC[C@@H](NC(=O)c1ccc(N[C@@H]2c3cc4c(cc3C(c3cc(OC)c(O)c(OC)c3)C3C(=O)OC[C@@H]32)OCO4)cc1)C(=O)OCC` (some centres not stated), the TGI in the assay on ACHN renal was 0.0379 µM; in the assay on K-562 leukemia, more than 10 µM; in the assay with OVCAR-5 ovarian, 0.404 µM; in the assay with SK-MEL-28 melanoma it was 0.53 µM; in the assay on SR leukemia it was more than 10 µM; with TK-10 renal it was 0.375 µM. Besides, the TGI with U251 CNS was 0.123 µM.
As to `COc1ccc(C2C(Cl)C(=O)N2NC(=O)Cc2ccccc2)cc1` (configuration not stated), the TGI with ACHN renal, in the assay with K-562 leukemia, with NCI-H522 lung, in the assay on OVCAR-4 ovarian, with OVCAR-5 ovarian and in the assay with SK-MEL-28 melanoma was more than 100 µM each time. For the same molecule, the TGI in the assay with SR leukemia, in the assay with TK-10 renal and with U251 CNS was more than 100 µM in each case.
In the case of `COC12C=CC(CC1)C1C(=O)c3c(C)c(C)n(C)c3C(=O)C12` (configuration not stated), the TGI in the assay with ACHN renal, in the assay on K-562 leukemia, with MCF7 breast, with OVCAR-5 ovarian, in the assay with SR leukemia and in the assay with TK-10 renal was more than 100 µM in each case. The molecule also showed a TGI with U251 CNS of more than 100 µM.
Regarding `COC(=O)CC1C(=O)OCc2c1cc1n(c2=O)Cc2c-1nc1ccccc1c2OC` (configuration not stated), the TGI in the assay with ACHN renal, in the assay on K-562 leukemia, with NCI-H522 lung, in the assay with OVCAR-4 ovarian, in the assay on OVCAR-5 ovarian and in the assay on SK-MEL-28 melanoma was more than 100 µM in each case. Moreover, the TGI is 40.8 µM with SR leukemia, more than 100 µM with TK-10 renal and more than 100 µM in the assay with U251 CNS.
With `O=C1CCC2SC1CCC2=O`, the TGI in the assay on ACHN renal, in the assay with K-562 leukemia, with MCF7 breast, in the assay on NCI-H522 lung, in the assay with OVCAR-4 ovarian and with OVCAR-5 ovarian was more than 100 µM throughout. Besides, the TGI in the assay with SK-MEL-28 melanoma, in the assay with TK-10 renal and in the assay with U251 CNS was more than 100 µM throughout.
As for `COc1cc2[nH]c(-c3cccc(N(C)C)c3)cc(=O)c2cc1OC`, the TGI in the assay with ACHN renal is more than 100 µM; in the assay on K-562 leukemia, more than 100 µM; in the assay on NCI-H522 lung it was 17.6 µM; in the assay with OVCAR-4 ovarian it was more than 100 µM; with OVCAR-5 ovarian, more than 100 µM; with SK-MEL-28 melanoma it was more than 100 µM. In addition, the TGI with SR leukemia and in the assay on TK-10 renal was more than 100 µM each time.
As for `CCN(CC)Cc1cc(Nc2c3ccccc3nc3c2[nH]c2ccccc23)ccc1O`, the TGI in the assay with ACHN renal is 3.53 µM; with K-562 leukemia it was more than 100 µM; in the assay with NCI-H522 lung it was 2.33 µM; with OVCAR-4 ovarian it was 3.32 µM; in the assay with OVCAR-5 ovarian it was 3.64 µM; with SK-MEL-28 melanoma, 3.47 µM. Besides, the TGI in the assay on SR leukemia worked out at 1.01 µM; in the assay on TK-10 renal it was 8.61 µM; in the assay on U251 CNS, 2.79 µM.
With `CCC1(N=[N+]=[N-])C(=O)Nc2cc(C)ccc2C1=O` (configuration not stated), the TGI is 51.2 µM in the assay with ACHN renal; more than 100 µM in the assay on K-562 leukemia; 15.6 µM in the assay with NCI-H522 lung; more than 100 µM in the assay on OVCAR-4 ovarian; more than 100 µM in the assay with OVCAR-5 ovarian; more than 100 µM in the assay with SK-MEL-28 melanoma. For the same molecule, the TGI with TK-10 renal and with U251 CNS was more than 100 µM each time.
Take `O=C(c1ccncc1)n1nc(-c2ccccc2)c(N=Nc2ccc([N+](=O)[O-])cc2)c1-c1ccccc1`: the TGI in the assay on K-562 leukemia is more than 100 µM; in the assay on NCI-H522 lung it was more than 100 µM; with OVCAR-4 ovarian it was 28.2 µM; in the assay on SK-MEL-28 melanoma, more than 100 µM; in the assay on SR leukemia it was more than 100 µM; in the assay on TK-10 renal, more than 100 µM.
As to `O=c1cc(-c2cccc(OC(F)(F)F)c2)[nH]c2cc3c(cc12)OCO3`, the TGI with ACHN renal, in the assay on MCF7 breast, in the assay with NCI-H522 lung, in the assay with OVCAR-5 ovarian, in the assay on SK-MEL-28 melanoma and in the assay on TK-10 renal was more than 100 µM throughout. The TGI in the assay with U251 CNS came to 0.188 µM.
`COc1ccc2c3ccc4c(c3n(C)c2c1)C(=O)c1ccccc1C4=O`: the TGI with ACHN renal, in the assay on K-562 leukemia, in the assay on NCI-H522 lung, with OVCAR-4 ovarian, in the assay on SK-MEL-28 melanoma and in the assay with SR leukemia was more than 100 µM throughout. Further, the TGI in the assay with U251 CNS is more than 100 µM.
On to `CC1=NN(C(=O)Cc2ccccc2)C(=O)/C1=C\C=C\c1ccccc1`, for which the TGI with ACHN renal, with K-562 leukemia, with NCI-H522 lung, in the assay on OVCAR-4 ovarian, in the assay on OVCAR-5 ovarian and in the assay on SK-MEL-28 melanoma was more than 100 µM in each case. Moreover, the TGI in the assay with SR leukemia and in the assay on TK-10 renal was more than 100 µM in each case.
